Experimental data: BigSolDB 2.1

OC[C@H]1O[C@@H](Oc2c(O)cc(O)cc2/C=C/c2ccc(O)cc2)[C@H](O)[C@@H](O)[C@@H]1O
solubility (mole fraction) (in DMF, 278.15 K): 0.0145
solubility (mole fraction) (in DMF, 283.15 K): 0.0175
solubility (mole fraction) (in DMF, 288.15 K): 0.0214
solubility (mole fraction) (in DMF, 293.15 K): 0.0255
solubility (mole fraction) (in DMF, 298.15 K): 0.0311
solubility (mole fraction) (in DMF, 303.15 K): 0.0369
solubility (mole fraction) (in DMF, 308.15 K): 0.0442
solubility (mole fraction) (in DMF, 313.15 K): 0.0522
solubility (mole fraction) (in DMF, 318.15 K): 0.0614
solubility (mole fraction) (in THF, 278.15 K): 0.0128
solubility (mole fraction) (in THF, 283.15 K): 0.0157
solubility (mole fraction) (in THF, 288.15 K): 0.0191
solubility (mole fraction) (in THF, 293.15 K): 0.0231
solubility (mole fraction) (in THF, 298.15 K): 0.0277
solubility (mole fraction) (in THF, 303.15 K): 0.0331
solubility (mole fraction) (in THF, 308.15 K): 0.0393
solubility (mole fraction) (in THF, 313.15 K): 0.0464
solubility (mole fraction) (in THF, 318.15 K): 0.0545
solubility (mole fraction) (in acetone, 278.15 K): 0.0121
solubility (mole fraction) (in acetone, 283.15 K): 0.0149
solubility (mole fraction) (in acetone, 288.15 K): 0.0181
solubility (mole fraction) (in acetone, 293.15 K): 0.0219
solubility (mole fraction) (in acetone, 298.15 K): 0.0264
solubility (mole fraction) (in acetone, 303.15 K): 0.0315
solubility (mole fraction) (in acetone, 308.15 K): 0.0365
solubility (mole fraction) (in acetone, 313.15 K): 0.0443
solubility (mole fraction) (in acetone, 318.15 K): 0.052
solubility (mole fraction) (in acetonitrile, 278.15 K): 0.00281
solubility (mole fraction) (in acetonitrile, 283.15 K): 0.00349
solubility (mole fraction) (in acetonitrile, 288.15 K): 0.0043
solubility (mole fraction) (in acetonitrile, 293.15 K): 0.00526
solubility (mole fraction) (in acetonitrile, 298.15 K): 0.00639
solubility (mole fraction) (in acetonitrile, 303.15 K): 0.00772
solubility (mole fraction) (in acetonitrile, 308.15 K): 0.00927
solubility (mole fraction) (in acetonitrile, 313.15 K): 0.0111
solubility (mole fraction) (in acetonitrile, 318.15 K): 0.0131
solubility (mole fraction) (in ethanol, 278.15 K): 0.00757
solubility (mole fraction) (in ethanol, 283.15 K): 0.00881
solubility (mole fraction) (in ethanol, 288.15 K): 0.0108
solubility (mole fraction) (in ethanol, 293.15 K): 0.0136
solubility (mole fraction) (in ethanol, 298.15 K): 0.0159
solubility (mole fraction) (in ethanol, 303.15 K): 0.0199
solubility (mole fraction) (in ethanol, 308.15 K): 0.0232
solubility (mole fraction) (in ethanol, 313.15 K): 0.0281
solubility (mole fraction) (in ethanol, 318.15 K): 0.0326
solubility (mole fraction) (in ethyl acetate, 278.15 K): 0.00441
solubility (mole fraction) (in ethyl acetate, 283.15 K): 0.00543
solubility (mole fraction) (in ethyl acetate, 288.15 K): 0.00665
solubility (mole fraction) (in ethyl acetate, 293.15 K): 0.00828
solubility (mole fraction) (in ethyl acetate, 298.15 K): 0.00987
solubility (mole fraction) (in ethyl acetate, 303.15 K): 0.0118
solubility (mole fraction) (in ethyl acetate, 308.15 K): 0.0139
solubility (mole fraction) (in ethyl acetate, 313.15 K): 0.0165
solubility (mole fraction) (in ethyl acetate, 318.15 K): 0.0192
solubility (mole fraction) (in isopropanol, 278.15 K): 0.00535
solubility (mole fraction) (in isopropanol, 283.15 K): 0.00652
solubility (mole fraction) (in isopropanol, 288.15 K): 0.00838
solubility (mole fraction) (in isopropanol, 293.15 K): 0.01
solubility (mole fraction) (in isopropanol, 298.15 K): 0.0122
solubility (mole fraction) (in isopropanol, 303.15 K): 0.0146
solubility (mole fraction) (in isopropanol, 308.15 K): 0.0174
solubility (mole fraction) (in isopropanol, 313.15 K): 0.0205
solubility (mole fraction) (in isopropanol, 318.15 K): 0.0238
solubility (mole fraction) (in methanol, 278.15 K): 0.00794
solubility (mole fraction) (in methanol, 283.15 K): 0.00978
solubility (mole fraction) (in methanol, 288.15 K): 0.0121
solubility (mole fraction) (in methanol, 293.15 K): 0.0149
solubility (mole fraction) (in methanol, 298.15 K): 0.0181
solubility (mole fraction) (in methanol, 303.15 K): 0.0215
solubility (mole fraction) (in methanol, 308.15 K): 0.0261
solubility (mole fraction) (in methanol, 313.15 K): 0.0316
solubility (mole fraction) (in methanol, 318.15 K): 0.0377
solubility (mole fraction) (in n-propanol, 278.15 K): 0.00601
solubility (mole fraction) (in n-propanol, 283.15 K): 0.0078
solubility (mole fraction) (in n-propanol, 288.15 K): 0.00977
solubility (mole fraction) (in n-propanol, 293.15 K): 0.012
solubility (mole fraction) (in n-propanol, 298.15 K): 0.014
solubility (mole fraction) (in n-propanol, 303.15 K): 0.0166
solubility (mole fraction) (in n-propanol, 308.15 K): 0.0196
solubility (mole fraction) (in n-propanol, 313.15 K): 0.0228
solubility (mole fraction) (in n-propanol, 318.15 K): 0.0269
